System: Human Heme Oxygenase-1 (HMOX-1)
Assay: ELISA assay to measure human heme oxygenase-1 (HMOX-1) in HepG2 lysate
Assay type: cell-based
Details: fold change of human HMOX1 protein levels relative to DMSO control, HepG2
Procedure: Example 143. ELISA Assay to Measure Human Heme Oxygenase-1 (HMOX-1) in HepG2 lysate
Reagents and Technical Notes:
ELISA capture antibody, standard HO-1, detection antibody and streptavidin HRP were supplied in the DuoSet IC Human total HO-1 ELISA from R&D systems (DYC3776-2). The substrate cocktail was KPL LumiGLO reserve Chemiluminescent Substrate (54-71-00). PBS was Corning Cellgro Cell Culture (21-040-CV). 10×PBS+0.05% tween20 (PBST) was from KPL.
All incubations of the plate were at room temperature (20° C.) in a closed drawer.
The ELISA plate was processed manually. All loadings were with a multichannel pipet. Plates were emptied by shaking into the sink and tapping onto paper towels to remove any remaining reagent. Plate washing was accomplished by loading all wells with PBS+0.05% tween20 (PBST) using a squirt bottle, shaking the PBST out and tapping the plate onto paper towels.
Preparation of the ELISA Plate: • 1. anti-HO-1 capture antibody was 1440 μg/ml after reconstitution in PBS. This antibody was diluted to 8 μg/ml in PBS and 50 μl per well was added to a 384 well greiner “lumitrac 200” plate. Incubated overnight. • 2. The plate was emptied and 100 μl PBS+1% BSA added to all wells. Incubated 90 minutes at room temperature.
Preparation of HepG2 Lysate: • 1. Cells were cultured in a 96-well tissue culture plate washed with PBS and then the plate frozen at −70° C. overnight. Plates were allowed to warm to ice temperature in an ice bucket. 20 μl of PBS, 0.5% Triton X100, 1 mM EDTA with 1×HALT™ protease inhibitors was added to each well and the plates incubated on ice for 1 hour. • 2. The lysates were frozen at −20° C. overnight.
Measurement of HMOX1 (“HO-1”) • 1. In a polypropylene 384 well plate, human HO-1(after reconstitution in PBS+0.5% Triton+1 mM EDTA) was serially diluted from 20 ng/ml 2-fold in PBS+0.5% triton-X100, 1 mM EDTA to make a 12-point standard curve including a zero point. • 2. In a polypropylene 96 well plate, HepG2 lysate was diluted 1 to 20 in Diluent #4 from DUOSET kit in which the assay standard is also diluted. • 3. The PBS+1% BSA was emptied from the ELISA plate and 30 μl of all samples and standards were added (duplicates recommended). The plate was incubated 90 minutes. • 4. Emptied plate and washed 4 times with PBST. • 5. Diluted HO-1 detection antibody to 200 ng/ml in PBS+1% BSA and added 30 μl to all wells. Incubated 90 minutes. • 6. Emptied plate and washed 4 times with PBST. • 7. Added 30 μl streptavidin HRP at 1/200 in PBS+1% BSA (stock streptavidin concentration not specified) to all wells. Incubated 30 minutes. • 8. Emptied plate and washed 4 times with PBST. • 9. Diluted Lumiglo reserve reagent two parts buffer to one part lumiglo substrate. Added 30 μl to all wells. Incubated 5 minutes. • 10. Measured chemiluminescence on spectramax M5 using 150 ms integration.
Table 1 below lists EC50 and fold changes of human HMOX1 protein levels relative to DMSO control upon treatment with representative compounds.

SMILES	Maximum Fold induction
Cn1c(Nc2nc3nccnc3s2)nc2cc(C(=O)NCCOCCO)ccc21 [Example 114, N-(2-(2-hydroxyethoxy)ethyl)-1-methyl-2-(thiazolo[4,5-b]pyrazin-2-ylamino)-1H-benzo[d]imidazole-5-carboxamide]	33
Cn1c(Nc2nc3cc(C(=O)O)ccc3n2C)nc2cc(OC(F)(F)F)ccc21 [Example 15, 1-methyl-2-((1-methyl-5-(trifluoromethoxy)-1H-benzo[d]imidazol-2-yl)amino)-1H-benzo[d]imidazole-5-carboxylic acid]	11-13
Cn1c(Nc2nc3ccc(OC(F)F)cc3o2)nc2cc(C(=O)O)ccc21 [Example 62, 2-((6-(difluoromethoxy)benzo[d]oxazol-2-yl)amino)-1-methyl-1H-benzo[d]imidazole-5-carboxylic acid]	15-24
CC(C)c1ccc2nc(Nc3nc4cc(C(=O)O)ccc4n3C)oc2c1 [Example 59, 2-((6-isopropylbenzo[d]oxazol-2-yl)amino)-1-methyl-1H-benzo[d]imidazole-5-carboxylic acid]	30
COCCNC(=O)c1ccc2c(c1)nc(Nc1nc3cc(OC(F)(F)F)ccc3[nH]1)n2CCOC [Example 76, N,1-bis(2-methoxyethyl)-2-((5-(trifluoromethoxy)-1H-benzo[d]imidazol-2-yl)amino)-1H-benzo[d]imidazole-5-carboxamide]	18-20
Cn1c(Nc2nc3ccccc3o2)nc2cc(C(=O)NCC3(O)COC3)ccc21 [Example 26, 2-(benzo[d]oxazol-2-ylamino)-N-((3-hydroxyoxetan-3-yl)methyl)-1-methyl-1H-benzo[d]imidazole-5-carboxamide]	26
CCn1c(Nc2nc3ccc(OC(F)(F)F)cc3o2)nc2cc(C(=O)O)ccc21 [Example 84, 1-ethyl-2-((6-(trifluoromethoxy)benzo[d]oxazol-2-yl)amino)-1H-benzo[d]imidazole-5-carboxylic acid]	17
CC(O)COCCNC(=O)c1ccc2c(c1)nc(Nc1nc3ccc(C(F)(F)F)cc3o1)n2C (stereo not drawn) [Example 38, N-(2-(2-hydroxypropoxy)ethyl)-1-methyl-2-((6-(trifluoromethyl)benzo[d]oxazol-2-yl)amino)-1H-benzo[d]imidazole-5-carboxamide]	30
COCCOc1ccc2nc(Nc3nc4cc(C(=O)NOCCO)ccc4n3C)oc2c1 [Example 128, N-(2-hydroxyethoxy)-2-((6-(2-methoxyethoxy)benzo[d]oxazol-2-yl)amino)-1-methyl-1H-benzo[d]imidazole-5-carboxamide]	48-75
CN(C)CC(=O)NCCONC(=O)c1ccc2c(c1)nc(Nc1nc3ccccc3o1)n2C [Example 121, 2-(benzo[d]oxazol-2-ylamino)-N-(2-(2-(dimethylamino)acetamido)ethoxy)-1-methyl-1H-benzo[d]imidazole-5-carboxamide]	22-23
Cn1c(Nc2nc3ccc(OCC(F)(F)F)cc3o2)nc2cc(C(=O)O)ccc21 [Example 98, 1-methyl-2-((6-(2,2,2-trifluoroethoxy)benzo[d]oxazol-2-yl)amino)-1H-benzo[d]imidazole-5-carboxylic acid]	36-56
Cn1c(Nc2nc3cc(C(=O)NCCOCCO)ccc3o2)nc2ccccc21 [Example 118, N-(2-(2-hydroxyethoxy)ethyl)-2-((1-methyl-1H-benzo[d]imidazol-2-yl)amino)benzo[d]oxazole-5-carboxamide]	24
COCCNC(=O)c1ccc2c(c1)nc(Nc1nc3cccnc3o1)n2C [Example 109, N-(2-methoxyethyl)-1-methyl-2-(oxazolo[5,4-b]pyridin-2-ylamino)-1H-benzo[d]imidazole-5-carboxamide]	26
O=C(O)c1ccc2c(c1)nc(Nc1nc3ccc(OC(F)(F)F)cc3o1)n2C1CCOCC1 [Example 79, 1-(tetrahydro-2H-pyran-4-yl)-2-((6-(trifluoromethoxy)benzo[d]oxazol-2-yl)amino)-1H-benzo[d]imidazole-5-carboxylic acid]	27-51
Cn1c(Nc2nc3ccc(OC4CCOCC4)cc3o2)nc2cc(C(=O)NCCOCCO)ccc21 [Example 138, N-(2-(2-hydroxyethoxy)ethyl)-1-methyl-2-((6-((tetrahydro-2H-pyran-4-yl)oxy)benzo[d]oxazol-2-yl)amino)-1H-benzo[d]imidazole-5-carboxamide]	20
CN1CCC(n2c(Nc3nc4ccc(OC(F)(F)F)cc4s3)nc3cc(C(=O)O)ccc32)C1 (stereo not drawn) [Example 4d, 1-(1-methylpyrrolidin-3-yl)-2-((6-(trifluoromethoxy)benzo[d]thiazol-2-yl)amino)-1H-benzo[d]imidazole-5-carboxylic acid]	29-33

Results, then the molecule that gave them:

Maximum Fold induction	SMILES
34-40	COCCOc1ccc2nc(Nc3nc4cc(C(=O)NCCO)ccc4n3C)oc2c1 [Example 57, N-(2-hydroxyethyl)-2-((6-(2-methoxyethoxy)benzo[d]oxazol-2-yl)amino)-1-methyl-1H-benzo[d]imidazole-5-carboxamide]
49	Cn1c(Nc2nc3ccccc3o2)nc2cc(C(=O)NCC(O)CO)ccc21 (stereo not drawn) [Example 24, 2-(benzo[d]oxazol-2-ylamino)-N-(2,3-dihydroxypropyl)-1-methyl-1H-benzo[d]imidazole-5-carboxamide]
37	CC(O)CNC(=O)c1ccc2c(c1)nc(Nc1nc3ccc(C(F)(F)F)cc3o1)n2C (stereo not drawn) [Example 35, N-(2-hydroxypropyl)-1-methyl-2-((6-(trifluoromethyl)benzo[d]oxazol-2-yl)amino)-1H-benzo[d]imidazole-5-carboxamide]
33-51	Cn1c(Nc2nc3ccc(Cl)cc3o2)nc2cc(C(=O)NCCO)ccc21 [Example 97, 2-((6-chlorobenzo[d]oxazol-2-yl)amino)-N-(2-hydroxyethyl)-1-methyl-1H-benzo[d]imidazole-5-carboxamide]
42-70	Cn1c(Nc2nc3ccc(-c4cscn4)cc3o2)nc2cc(C(=O)NCCOCCO)ccc21 [Example 134, N-(2-(2-hydroxyethoxy)ethyl)-1-methyl-2-((6-(thiazol-4-yl)benzo[d]oxazol-2-yl)amino)-1H-benzo[d]imidazole-5-carboxamide]
31-36	Cn1c(Nc2nc3ccc(C(F)(F)F)cc3o2)nc2cc(C(=O)NCCOCCO)ccc21 [Example 34, N-(2-(2-hydroxyethoxy)ethyl)-1-methyl-2-((6-(trifluoromethyl)benzo[d]oxazol-2-yl)amino)-1H-benzo[d]imidazole-5-carboxamide]
14-50	COCCNC(=O)c1ccc2c(c1)nc(Nc1nc3ccc(C(F)(F)F)cc3o1)n2C [Example 32, N-(2-methoxyethyl)-1-methyl-2-((6-(trifluoromethyl)benzo[d]oxazol-2-yl)amino)-1H-benzo[d]imidazole-5-carboxamide]
32-59	Cn1c(Nc2nc3ccc(C(F)(F)F)cc3o2)nc2cc(C(=O)NOCCO)ccc21 [Example 125, N-(2-hydroxyethoxy)-1-methyl-2-((6-(trifluoromethyl)benzo[d]oxazol-2-yl)amino)-1H-benzo[d]imidazole-5-carboxamide]
60	CC(C)c1ccc2nc(Nc3nc4cc(C(=O)NCCO)ccc4n3C)oc2c1 [Example 61, N-(2-hydroxyethyl)-2-((6-isopropylbenzo[d]oxazol-2-yl)amino)-1-methyl-1H-benzo[d]imidazole-5-carboxamide]
6-15	COCCNC(=O)c1ccc2c(c1)nc(Nc1nc3ccccc3o1)n2C [Example 1i, 2-(benzo[d]oxazol-2-ylamino)-N-(2-methoxyethyl)-1-methyl-1H-benzo[d]imidazole-5-carboxamide]
15-42	COCCNC(=O)c1ccc2c(c1)nc(Nc1nc3cc(C)ccc3o1)n2C [Example 65, N-(2-methoxyethyl)-1-methyl-2-((5-methylbenzo[d]oxazol-2-yl)amino)-1H-benzo[d]imidazole-5-carboxamide]

From patent publication US20240051952A1, “HMOX1 INDUCERS” (Mitobridge Inc., priority 2019, published 2024)
